Patent US5356886A, “Antiviral phosphono-alken derivatives of purines” (Beecham Group p.l.c., priority 1990, dated 1994)
In brackets after ≈: the same amount, converted by molar mass.

Tested on: CMV
Experiment: Plaque Reduction Test for Cytomegalovirus (AD-169 strain) in MRC-5 cells
Assay type: cell-based
Conditions: Human betaherpesvirus 5, AD169, MRC5
Method: MRC-5 cells were grown to confluence in 24 well multi-dishes (well diameter=1.5 cm). The drained cell monolayers were each infected with approximately 50 infectious particles of cytomegalovirus (CMV; AD-169 strain) in 100 μl of phosphate-buffered saline. The virus was adsorbed for 1 hour at room temperature. After adsorption, residual inoculum was removed from each well and replaced with 1 ml of Eagle's MEM containing 10% heat inactivated foetal calf serum and 0.9% agarose (A37). Once the agarose had set, dilutions of the test compound, which had been prepared in Eagle's MEM (containing 10% heat-inactivated calf serum), were added, each well receiving 1 ml of liquid overlay. The test compound was diluted to give the following series of concentrations: 200, 60, 20, 6 . . . 0.06 μg/ml; final concentrations in the assay range, therefore, between 100 μg/ml and 0.03 μg/ml. The infected cultures were incubated at 37° C. in a humidified atmosphere containing 5% CO2 until plaques were clearly visible (about 12 days). The cultures are fixed in formol saline, the agarose overlays were carefully washed off, and then the cell monolayers were stained with carbol fuchsin. A stereo microscope was used to count plaques. The IC50 (concentration of drug which inhibits the number of plaques formed by 50% relative to the number of plaques observed in virus control monolayers) of the test compound was calculated. In addition, the monolayers were examined for evidence of drug-induced cytotoxicity; the minimum concentration at which cytotoxicity occurs was recorded.

Nc1nc2c(ncn2OCC/C=C/P(=O)(O)O)c(=O)[nH]1 [Example 1, (E)-9-(4-phosphonobut-3-enyloxy)guanine]
IC50: 0.16 µg/mL (≈ 0.531 µM)
